Laboratory results reported in patent US4732970A, “Antitumor amino acid and peptide derivatives of 1,4-bis(aminoalkyl and hydroxy-aminoalkyl)amino)-5,8-dihydroxyanthraquinones” (priority 1986, dated 1988).

Tested on: lymphocytic leukemia P388
Test: Lymphocytic Leukemia P388 Test
Type: in vivo, BDF1 mice
Conditions: for response vs control in vivo at 0.75 mg/kg / response vs control in vivo at 1.5 mg/kg / response vs control in vivo at 3 mg/kg: Mus musculus, P388, ip, read-out: T/C × 100 (%); for Median Survival: BDF1 mice; for T/C × 100 (%): ratio of survival time treated/control
In short: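 BDF1 mice (5–6 per group) were inoculated i.p. with 10^6 P388 cells, then dosed i.p. on days 1, 5 and 9 at various doses. Survival was followed for 60 days, and median survival time and the treated/control (T/C) survival ratio were calculated.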

[1] = dose 0.75 mg/kg intraperitoneally on days 1, 5 and 9
[2] = dose 1.5 mg/kg intraperitoneally on days 1, 5 and 9
[3] = dose 3 mg/kg intraperitoneally on days 1, 5 and 9

SMILES	response vs control in vivo at 0.75 mg/kg [%]	response vs control in vivo at 1.5 mg/kg [%]	response vs control in vivo at 3 mg/kg [%]	Median Survival [1] [days]	Median Survival [2] [days]	Median Survival [3] [days]	T/C × 100 (%) [1] [%]	T/C × 100 (%) [2] [%]	T/C × 100 (%) [3] [%]
CC(C)C[C@H](NC(=O)[C@H](C)NC(=O)[C@H](C)NC(=O)OC(C)(C)C)C(=O)NCCNc1ccc(NCCNC(=O)[C@H](CC(C)C)NC(=O)[C@H](C)NC(=O)[C@H](C)NC(=O)OC(C)(C)C)c2c1C(=O)c1c(O)ccc(O)c1C2=O [Example 67, N,N'-[(9,10-Dihydro-5,8-dihydroxy-9,10-dioxo-1,4-anthracenediyl)bis(imino-2,1-ethanediyl)]bis[N-[(1,1-dimethylethoxy)carbonyl]-L-alanyl-L-alanyl-L-leucinamide]]	155	165	160	15.5	16.5	16.0	–	–	–
CC(C)C[C@H](NC(=O)[C@H](C)NC(=O)[C@H](C)N)C(=O)NCCNc1ccc(NCCNC(=O)[C@H](CC(C)C)NC(=O)[C@H](C)NC(=O)[C@H](C)N)c2c1C(=O)c1c(O)ccc(O)c1C2=O.O=C(O)C(F)(F)F.O=C(O)C(F)(F)F [Example 68]	–	–	–	21.0	21.5	22.0	210	215	220
CC(C)C[C@H](NC(=O)CNC(=O)CNC(=O)OCc1ccccc1)C(=O)NCCNc1ccc(NCCNC(=O)[C@H](CC(C)C)NC(=O)CNC(=O)CNC(=O)OCc2ccccc2)c2c1C(=O)c1c(O)ccc(O)c1C2=O [Example 69, N,N'-[(9,10-Dihydro-5,8-dihydroxy-9,10-dioxo-1,4-anthracenediyl)bis(imino-2,1-ethanediyl)]bis[N-[(phenylmethoxy)carbonyl]glycylglycyl-L-leucinamide]]	170	170	180	17.0	17.0	18.0	–	–	–
Br.Br.CC(C)C[C@H](NC(=O)CNC(=O)CN)C(=O)NCCNc1ccc(NCCNC(=O)[C@H](CC(C)C)NC(=O)CNC(=O)CN)c2c1C(=O)c1c(O)ccc(O)c1C2=O [Example 70, N,N'-[(9,10-Dihydro-5,8-dihydroxy-9,10-dioxo-1,4-anthracenediyl)bis(imino-2,1-ethanediyl)]bis[glycylglycyl-L-leucinamide]dihydrobromide]	–	–	–	22.0	22.5	44.5	220	225	445
C[C@H](N)C(=O)N[C@@H](C)C(=O)N[C@@H](C)C(=O)NCCNc1ccc(NCCNC(=O)[C@H](C)NC(=O)[C@H](C)NC(=O)[C@H](C)N)c2c1C(=O)c1c(O)ccc(O)c1C2=O.O=C(O)C(F)(F)F.O=C(O)C(F)(F)F [Example 73, N,N'-[(9,10-Dihydro-5,8-dihydroxy-9,10-dioxo-1,4-anthracenediyl)bis(imino-2,1-ethanediyl)]bis[L-alanyl-L-alanyl-L-alanine]bis(trifluoroacetate)]	–	–	–	21.0	24.5	40.0	200	233	381
C[C@H](NC(=O)[C@H](CO)NC(=O)OC(C)(C)C)C(=O)NCCNc1ccc(NCCNC(=O)[C@H](C)NC(=O)[C@H](CO)NC(=O)OC(C)(C)C)c2c1C(=O)c1c(O)ccc(O)c1C2=O [Example 75]	–	–	–	18.5	19.0	21.0	154	158	175
C[C@H](NC(=O)[C@@H](N)CO)C(=O)NCCNc1ccc(NCCNC(=O)[C@H](C)NC(=O)[C@@H](N)CO)c2c1C(=O)c1c(O)ccc(O)c1C2=O.O=C(O)C(F)(F)F.O=C(O)C(F)(F)F [Example 76, N,N'-[(9,10-Dihydro-5,8-dihydroxy-9,10-dioxo-1,4-anthracenediyl)bis(imino-2,1-ethanediyl)]bis[L-seryl-L-alaninamide]bis(trifluoroacetate)]	–	–	–	22.0	22.5	22.5	183	188	188
C[C@H](NC(=O)[C@H](CO)NC(=O)[C@H](CC(=O)OC(C)(C)C)NC(=O)OCC1c2ccccc2-c2ccccc21)C(=O)NCCNc1ccc(NCCNC(=O)[C@H](C)NC(=O)[C@H](CO)NC(=O)[C@H](CC(=O)OC(C)(C)C)NC(=O)OCC2c3ccccc3-c3ccccc32)c2c1C(=O)c1c(O)ccc(O)c1C2=O [Example 77, N,N'-[(9,10-Dihydro-5,8-dihydroxy-9,10-dioxo-1,4-anthracenediyl)bis(imino-2,1-ethanediyl)]bis[N-[(9H-fluoren-9-ylmethoxy)carbonyl]-L-α-aspartyl-L-seryl-L-alaninamide]bis(1,1-dimethylethyl)ester]	–	–	–	20.0	20.0	22.5	167	167	188
C[C@H](NC(=O)[C@H](CO)NC(=O)[C@@H](N)CC(=O)OC(C)(C)C)C(=O)NCCNc1ccc(NCCNC(=O)[C@H](C)NC(=O)[C@H](CO)NC(=O)[C@@H](N)CC(=O)OC(C)(C)C)c2c1C(=O)c1c(O)ccc(O)c1C2=O [Example 78, N,N'-[(9,10-Dihydro-5,8-dihydroxy-9,10-dioxo-1,4-anthracenediyl)bis(imino-2,1-ethanediyl)]bis[L-α-aspartyl-L-seryl-L-alaninamide]bis(1,1-dimethylethyl)ester]	–	–	–	18.0	23.0	22.5	150	192	188
C[C@H](NC(=O)[C@H](C)NC(=O)[C@H](CC(=O)OC(C)(C)C)NC(=O)OCC1c2ccccc2-c2ccccc21)C(=O)NCCNc1ccc(NCCNC(=O)[C@H](C)NC(=O)[C@H](C)NC(=O)[C@H](CC(=O)OC(C)(C)C)NC(=O)OCC2c3ccccc3-c3ccccc32)c2c1C(=O)c1c(O)ccc(O)c1C2=O [Example 79, N,N'-[(9,10-Dihydro-5,8-dihydroxy-9,10-dioxo-1,4-anthracenediyl)bis(imino-2,1-ethanediyl)]bis[N-[(9H-fluoren-9-ylmethoxy)carbonyl]-L-α-aspartyl-L-alanyl-L-alaninamide]bis(1,1-dimethylethyl)ester]	–	–	–	18.5	18.0	19.0	168	164	173
CC(NC(=O)C(N)CC(=O)OC(C)(C)C)C(=O)NC(C)C(=O)NCCNc1ccc(NCCNC(=O)C(C)NC(=O)C(C)NC(=O)C(N)CC(=O)OC(C)(C)C)c2c1C(=O)c1c(O)ccc(O)c1C2=O [Example 80, N,N'-[(9,10-Dihydro-5,8-dihydroxy-9,10-dioxo-1,4-anthracenediyl)bis(imino-2,1-ethanediyl)]bis[L-α-aspartyl-L-alanyl-L-alaninamide]bis(1,1-dimethylethyl)ester]	–	–	–	19.0	19.5	26.0	173	177	236
CC(C)C[C@H](NC(=O)[C@H](C)NC(=O)[C@H](CC(=O)OC(C)(C)C)NC(=O)OCC1c2ccccc2-c2ccccc21)C(=O)NCCNc1ccc(NCCNC(=O)[C@H](CC(C)C)NC(=O)[C@H](C)NC(=O)[C@H](CC(=O)OC(C)(C)C)NC(=O)OCC2c3ccccc3-c3ccccc32)c2c1C(=O)c1c(O)ccc(O)c1C2=O [Example 81, N,N'-[(9,10-Dihydro-5,8-dihydroxy-9,10-dioxo-1,4-anthracenediyl)bis(imino-2,1-ethanediyl)]bis[N-[(9H-fluoren-9-ylmethoxy)carbonyl]-L-α-aspartyl-L-alanyl-L-leucinamide]bis(1,1-dimethylethyl)ester]	–	–	–	16.0	18.5	19.0	145	168	173
CC(C)C[C@H](NC(=O)[C@H](C)NC(=O)[C@@H](N)CC(=O)OC(C)(C)C)C(=O)NCCNc1ccc(NCCNC(=O)[C@H](CC(C)C)NC(=O)[C@H](C)NC(=O)[C@@H](N)CC(=O)OC(C)(C)C)c2c1C(=O)c1c(O)ccc(O)c1C2=O [Example 82, N,N'-[(9,10-Dihydro-5,8-dihydroxy-9,10-dioxo-1,4-anthracenediyl)bis(imino-2,1-ethanediyl)]bis[L-α-aspartyl-L-alanyl-L-leucinamide]bis(1,1-dimethylethyl)ester]	–	–	–	21.0	19.0	19.0	191	173	173
C[C@H](NC(=O)[C@H](C)NC(=O)[C@@H](N)CC(=O)O)C(=O)NCCNc1ccc(NCCNC(=O)[C@H](C)NC(=O)[C@H](C)NC(=O)[C@@H](N)CC(=O)O)c2c1C(=O)c1c(O)ccc(O)c1C2=O.O=C(O)C(F)(F)F.O=C(O)C(F)(F)F [Example 83]	–	–	–	22.0	22.5	38.5	220	225	385
